# ChEMBL document CHEMBL4732086, “Targeting nuclear protein TDP-43 by cell division cycle kinase 7 inhibitors: A new therapeutic approach for amyotrophic lateral sclerosis” (Eur J Med Chem, 2021)
# Activity calls are given as the source filed them. No cut-off for these calls is given here.
# What was measured:
# [1] = molecular target: Tyrosine-protein kinase ABL1 (Homo sapiens) (UniProt P00519); experiment: Inhibition of recombinant full length human His-tagged ABL1 expressed in baculovirus expression system using tyrosine-2 peptide as substrate at 10 uM incubated for 60 mins in presence of ATP by Z'-LYTE assay
# [2] = molecular target: T1, Aurora kinase A (Homo sapiens) (UniProt O14965); experiment: Inhibition of recombinant human full length AURKA expressed in baculovirus expression system using Ser/Thr-01 peptide as substrate at 10 uM after 1 hr in presence of ATP by Z'LYTE assay
# T1 sequence (whole entry): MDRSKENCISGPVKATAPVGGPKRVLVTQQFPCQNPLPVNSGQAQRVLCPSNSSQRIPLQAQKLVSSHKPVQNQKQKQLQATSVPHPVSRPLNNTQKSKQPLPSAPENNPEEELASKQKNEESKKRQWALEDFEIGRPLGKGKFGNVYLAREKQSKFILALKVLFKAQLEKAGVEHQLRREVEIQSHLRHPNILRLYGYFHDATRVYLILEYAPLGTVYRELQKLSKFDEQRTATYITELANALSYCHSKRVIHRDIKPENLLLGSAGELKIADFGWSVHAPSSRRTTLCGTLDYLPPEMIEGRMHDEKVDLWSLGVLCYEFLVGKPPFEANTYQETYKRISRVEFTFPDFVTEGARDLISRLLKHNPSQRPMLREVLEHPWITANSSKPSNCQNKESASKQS
# [3] = molecular target: Aurora kinase B (Homo sapiens) (UniProt Q96GD4); experiment: Inhibition of recombinant full length His-tagged human AURKB expressed in baculovirus expression system using Ser/Thr-01 peptide as substrate at 10 uM incubated for 60 mins in presence of ATP by Z'-LYTE assay
# [4] = molecular target: CDC7/DBF4 (Cell division cycle 7-related protein kinase/Activator of S phase kinase) (Homo sapiens, UniProt O00311); experiment: Inhibition of recombinant human CDC7/Dbf4 expressed in baculovirus infected Sf9 insect cells assessed as inhibition of fluorescein labelled substrate phosphorylation in presence of ATP measured after 60 mins by TR-FRET assay
# [5] = molecular target: RAC-alpha serine/threonine-protein kinase (Homo sapiens) (UniProt P31749); experiment: Inhibition of recombinant full length human His-tagged AKT1 using serine/threonine-06 peptide as substrate at 10 uM incubated for 60 mins in presence of ATP by Z'-LYTE assay
# [6] = molecular target: CDK2/Cyclin A2 (Homo sapiens) (UniProt P24941+P20248); experiment: Inhibition of recombinant full length human His-tagged CDK2/Cyclin A expressed in baculovirus expression system using serine/threonine-12 peptide as substrate at 10 uM incubated for 60 mins in presence of ATP by Z'-LYTE assay
# [7] = molecular target: T2, Serine/threonine-protein kinase Chk1 (Homo sapiens) (UniProt O14757); experiment: Inhibition of human CHK1 using serine/threonine-07 peptide as substrate at 10 uM incubated for 60 mins in presence of ATP by Z'-LYTE assay
# T2 sequence (whole entry): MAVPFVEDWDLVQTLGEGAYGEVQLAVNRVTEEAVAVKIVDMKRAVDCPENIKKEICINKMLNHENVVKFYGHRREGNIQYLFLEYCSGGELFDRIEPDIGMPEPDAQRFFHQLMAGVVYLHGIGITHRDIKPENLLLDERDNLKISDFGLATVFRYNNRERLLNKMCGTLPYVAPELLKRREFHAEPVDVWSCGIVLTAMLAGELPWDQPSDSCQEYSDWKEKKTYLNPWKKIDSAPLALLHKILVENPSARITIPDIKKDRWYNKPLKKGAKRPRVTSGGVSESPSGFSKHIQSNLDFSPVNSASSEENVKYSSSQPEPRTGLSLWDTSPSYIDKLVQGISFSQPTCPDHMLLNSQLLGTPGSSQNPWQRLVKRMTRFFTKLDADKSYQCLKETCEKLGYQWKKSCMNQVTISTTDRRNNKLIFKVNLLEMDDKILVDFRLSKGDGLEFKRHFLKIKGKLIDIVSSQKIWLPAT
# [8] = molecular target: Casein kinase I isoform epsilon (Homo sapiens) (UniProt P49674); experiment: Inhibition of human CSNK1E expressed in baculovirus expression system using serine/threonine-11 peptide as substrate at 10 uM incubated for 60 mins in presence of ATP by Z'-LYTE assay
# [9] = molecular target: Tyrosine-protein kinase Fyn (Homo sapiens) (UniProt P06241); experiment: Inhibition of recombinant human His-tagged Fyn expressed in baculovirus expression system using Tyr 02 peptide as substrate at 10 uM incubated for 60 mins in presence of ATP by Z'-LYTE assay
# [10] = molecular target: Homeodomain-interacting protein kinase 1 (Homo sapiens) (UniProt Q86Z02); experiment: Inhibition of recombinant human full length GST-tagged HIPK1 expressed in baculovirus expression system using serine/threonine-09 peptide as substrate at 10 uM incubated for 60 mins in presence of ATP by Z'-LYTE assay
# [11] = molecular target: Mitogen-activated protein kinase 7 (Homo sapiens) (UniProt Q13164); experiment: Inhibition of recombinant human full length GST-tagged MAPK7 expressed in baculovirus expression system using serine/threonine-04 peptide as substrate at 10 uM by Z'-LYTE assay; conditions: time 60.0 min
# [12] = molecular target: Serine/threonine-protein kinase MARK1 (Homo sapiens) (UniProt Q9P0L2); experiment: Inhibition of recombinant human full length GST-tagged MARK1 expressed in baculovirus expression system using serine/threonine-21 peptide as substrate at 10 uM by Z'-LYTE assay; conditions: time 60.0 min
# [13] = molecular target: Serine/threonine-protein kinase MARK2 (Homo sapiens) (UniProt Q7KZI7); experiment: Inhibition of recombinant human full length GST-tagged MARK2 expressed in baculovirus expression system using serine/threonine-21 peptide as substrate at 10 uM by Z'-LYTE assay; conditions: time 60.0 min
# [14] = molecular target: Platelet-derived growth factor receptor alpha (Homo sapiens) (UniProt P16234); experiment: Inhibition of recombinant human GST-tagged PDGFRA expressed in baculovirus expression system using Tyr-04 peptide as substrate at 10 uM by Z'-LYTE assay; conditions: time 60.0 min
# [15] = molecular target: Serine/threonine-protein kinase pim-1 (Homo sapiens) (UniProt P11309); experiment: Inhibition of recombinant human HIS-tagged PIM1 expressed in baculovirus expression system using serine/threonine-07 peptide as substrate at 10 uM by Z'-LYTE assay; conditions: time 60.0 min
# [16] = molecular target: Serine/threonine-protein kinase pim-2 (Homo sapiens) (UniProt Q9P1W9); experiment: Inhibition of recombinant human GST-tagged PIM2 expressed in baculovirus expression system using serine/threonine-07 peptide as substrate at 10 uM by Z'-LYTE assay; conditions: time 60.0 min
# [17] = molecular target: cAMP-dependent protein kinase catalytic subunit alpha (Homo sapiens) (UniProt P17612); experiment: Inhibition of recombinant human His-tagged PRKACA expressed in Escherichia coli expression system using serine/threonine-01 peptide as substrate at 10 uM by Z'-LYTE assay; conditions: time 60.0 min
# SH-SY5Y = experiment: Neuroprotective activity in human SH-SY5Y cells assessed by effect on TDP-43 levels preincubated for 1 hr followed by incubation with ethacrynic acid for 24 hrs measured at 10 uM by Western blot assay; format: functional, cell-based
# Sequence of Aurora kinase B (Homo sapiens) (Q96GD4 whole entry): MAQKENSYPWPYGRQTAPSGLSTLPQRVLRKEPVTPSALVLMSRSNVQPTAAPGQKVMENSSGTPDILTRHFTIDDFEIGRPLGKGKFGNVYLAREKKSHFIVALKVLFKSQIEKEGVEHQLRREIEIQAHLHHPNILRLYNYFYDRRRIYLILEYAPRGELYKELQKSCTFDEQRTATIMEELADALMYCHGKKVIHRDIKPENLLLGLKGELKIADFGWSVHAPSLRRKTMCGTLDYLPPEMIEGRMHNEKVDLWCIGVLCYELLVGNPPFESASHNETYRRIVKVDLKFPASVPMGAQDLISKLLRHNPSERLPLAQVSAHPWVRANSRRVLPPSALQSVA
# Sequence of CDC7/DBF4 (Cell division cycle 7-related protein kinase/Activator of S phase kinase) (Q9UBU7 whole entry): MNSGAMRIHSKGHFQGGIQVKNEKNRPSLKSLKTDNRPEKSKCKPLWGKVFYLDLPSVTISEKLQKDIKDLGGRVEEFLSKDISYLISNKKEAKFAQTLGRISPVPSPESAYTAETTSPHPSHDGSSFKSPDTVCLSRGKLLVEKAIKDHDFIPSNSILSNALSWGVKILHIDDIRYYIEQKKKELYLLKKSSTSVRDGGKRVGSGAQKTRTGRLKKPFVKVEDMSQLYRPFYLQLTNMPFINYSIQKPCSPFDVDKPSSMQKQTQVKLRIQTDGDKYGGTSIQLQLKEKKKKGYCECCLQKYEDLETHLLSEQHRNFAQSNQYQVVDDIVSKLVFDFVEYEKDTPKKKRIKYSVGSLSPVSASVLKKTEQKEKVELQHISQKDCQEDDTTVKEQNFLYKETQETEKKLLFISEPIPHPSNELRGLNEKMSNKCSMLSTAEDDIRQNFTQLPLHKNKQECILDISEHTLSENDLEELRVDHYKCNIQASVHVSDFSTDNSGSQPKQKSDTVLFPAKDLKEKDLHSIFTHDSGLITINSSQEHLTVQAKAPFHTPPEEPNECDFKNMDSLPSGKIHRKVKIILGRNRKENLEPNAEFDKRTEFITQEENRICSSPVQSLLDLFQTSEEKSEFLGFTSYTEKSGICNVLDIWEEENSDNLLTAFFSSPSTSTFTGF
# Sequence of CDC7/DBF4 (Cell division cycle 7-related protein kinase/Activator of S phase kinase) (O00311 whole entry): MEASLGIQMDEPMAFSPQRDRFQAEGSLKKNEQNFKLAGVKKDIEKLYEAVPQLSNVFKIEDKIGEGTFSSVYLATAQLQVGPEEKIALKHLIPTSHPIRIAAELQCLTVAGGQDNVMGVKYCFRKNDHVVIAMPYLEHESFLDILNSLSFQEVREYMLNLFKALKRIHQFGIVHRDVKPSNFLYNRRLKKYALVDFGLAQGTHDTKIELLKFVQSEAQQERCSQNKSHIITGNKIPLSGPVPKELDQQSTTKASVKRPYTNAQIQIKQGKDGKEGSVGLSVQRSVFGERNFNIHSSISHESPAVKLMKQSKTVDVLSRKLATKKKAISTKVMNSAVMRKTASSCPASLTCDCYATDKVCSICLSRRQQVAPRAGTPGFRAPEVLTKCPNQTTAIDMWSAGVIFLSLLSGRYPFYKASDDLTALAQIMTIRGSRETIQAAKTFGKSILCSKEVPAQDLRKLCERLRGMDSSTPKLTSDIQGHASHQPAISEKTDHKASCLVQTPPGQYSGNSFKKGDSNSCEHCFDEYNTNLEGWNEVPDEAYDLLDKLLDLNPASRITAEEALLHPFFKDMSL
# Sequence of Serine/threonine-protein kinase MARK2 (Homo sapiens) (Q7KZI7 whole entry): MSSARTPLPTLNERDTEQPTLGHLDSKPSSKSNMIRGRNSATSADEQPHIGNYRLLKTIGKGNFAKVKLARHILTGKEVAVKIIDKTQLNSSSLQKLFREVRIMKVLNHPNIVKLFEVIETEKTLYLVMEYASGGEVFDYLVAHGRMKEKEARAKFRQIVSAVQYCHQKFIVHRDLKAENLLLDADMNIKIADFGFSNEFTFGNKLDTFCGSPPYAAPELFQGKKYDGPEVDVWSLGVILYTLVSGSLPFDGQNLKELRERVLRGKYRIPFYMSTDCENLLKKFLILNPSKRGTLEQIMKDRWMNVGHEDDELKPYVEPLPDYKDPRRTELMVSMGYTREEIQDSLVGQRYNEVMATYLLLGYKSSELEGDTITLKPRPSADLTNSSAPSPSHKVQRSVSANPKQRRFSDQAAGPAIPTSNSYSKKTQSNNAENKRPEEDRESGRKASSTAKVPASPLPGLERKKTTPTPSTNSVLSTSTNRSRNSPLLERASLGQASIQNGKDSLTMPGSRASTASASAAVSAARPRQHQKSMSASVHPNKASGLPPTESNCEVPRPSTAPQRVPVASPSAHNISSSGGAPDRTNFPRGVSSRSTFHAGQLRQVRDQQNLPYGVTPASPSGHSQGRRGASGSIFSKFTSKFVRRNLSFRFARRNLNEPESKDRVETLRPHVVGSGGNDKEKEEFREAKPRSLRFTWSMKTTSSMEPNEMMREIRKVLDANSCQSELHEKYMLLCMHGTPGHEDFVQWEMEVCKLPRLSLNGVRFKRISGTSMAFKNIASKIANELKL
# Sequence of RAC-alpha serine/threonine-protein kinase (Homo sapiens) (P31749 whole entry): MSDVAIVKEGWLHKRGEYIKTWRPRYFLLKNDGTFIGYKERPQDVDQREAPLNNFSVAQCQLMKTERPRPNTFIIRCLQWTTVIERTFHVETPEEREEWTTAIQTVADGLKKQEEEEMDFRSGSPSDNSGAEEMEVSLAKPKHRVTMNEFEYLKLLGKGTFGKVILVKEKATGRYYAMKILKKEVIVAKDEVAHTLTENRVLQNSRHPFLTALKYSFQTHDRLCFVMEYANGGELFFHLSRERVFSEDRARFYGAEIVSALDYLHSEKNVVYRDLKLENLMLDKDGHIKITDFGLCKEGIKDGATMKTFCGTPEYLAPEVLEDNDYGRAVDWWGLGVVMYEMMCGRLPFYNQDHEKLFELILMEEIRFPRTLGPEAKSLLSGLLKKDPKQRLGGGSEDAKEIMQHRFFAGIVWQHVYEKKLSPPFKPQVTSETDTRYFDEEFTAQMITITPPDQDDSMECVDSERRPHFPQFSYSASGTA
# Sequence of Serine/threonine-protein kinase pim-1 (Homo sapiens) (P11309 whole entry, looked up): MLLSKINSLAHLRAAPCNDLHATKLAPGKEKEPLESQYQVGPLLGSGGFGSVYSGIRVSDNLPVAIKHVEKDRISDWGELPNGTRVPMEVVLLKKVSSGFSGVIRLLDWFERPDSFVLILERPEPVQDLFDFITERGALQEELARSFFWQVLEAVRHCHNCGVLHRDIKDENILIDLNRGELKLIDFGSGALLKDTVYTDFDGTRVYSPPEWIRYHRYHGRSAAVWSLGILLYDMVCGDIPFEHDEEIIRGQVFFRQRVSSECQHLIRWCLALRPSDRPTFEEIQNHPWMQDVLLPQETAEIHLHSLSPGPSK
# Sequence of Serine/threonine-protein kinase pim-2 (Homo sapiens) (Q9P1W9 whole entry, looked up): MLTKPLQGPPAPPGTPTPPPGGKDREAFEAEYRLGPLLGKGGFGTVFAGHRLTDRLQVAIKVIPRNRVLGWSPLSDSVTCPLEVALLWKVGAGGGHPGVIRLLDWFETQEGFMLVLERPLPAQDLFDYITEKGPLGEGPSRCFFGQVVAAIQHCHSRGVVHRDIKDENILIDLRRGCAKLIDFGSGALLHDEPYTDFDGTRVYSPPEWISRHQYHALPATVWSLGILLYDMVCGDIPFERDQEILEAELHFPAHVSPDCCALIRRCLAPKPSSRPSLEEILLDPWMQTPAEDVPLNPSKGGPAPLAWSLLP
# Sequence of Casein kinase I isoform epsilon (Homo sapiens) (P49674 whole entry, looked up, canonical isoform): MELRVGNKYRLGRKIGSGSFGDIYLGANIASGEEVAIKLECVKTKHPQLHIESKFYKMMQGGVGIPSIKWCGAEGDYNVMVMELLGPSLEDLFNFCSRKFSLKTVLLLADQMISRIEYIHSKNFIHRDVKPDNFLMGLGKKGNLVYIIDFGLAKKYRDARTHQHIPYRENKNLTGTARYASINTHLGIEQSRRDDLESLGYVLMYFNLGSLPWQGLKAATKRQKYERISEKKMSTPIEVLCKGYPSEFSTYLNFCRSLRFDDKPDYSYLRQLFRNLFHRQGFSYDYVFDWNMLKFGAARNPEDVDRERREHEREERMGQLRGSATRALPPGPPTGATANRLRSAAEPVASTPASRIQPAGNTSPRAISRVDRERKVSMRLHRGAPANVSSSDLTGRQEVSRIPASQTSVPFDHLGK
# Sequence of Tyrosine-protein kinase Fyn (Homo sapiens) (P06241 2-537 limits assumed): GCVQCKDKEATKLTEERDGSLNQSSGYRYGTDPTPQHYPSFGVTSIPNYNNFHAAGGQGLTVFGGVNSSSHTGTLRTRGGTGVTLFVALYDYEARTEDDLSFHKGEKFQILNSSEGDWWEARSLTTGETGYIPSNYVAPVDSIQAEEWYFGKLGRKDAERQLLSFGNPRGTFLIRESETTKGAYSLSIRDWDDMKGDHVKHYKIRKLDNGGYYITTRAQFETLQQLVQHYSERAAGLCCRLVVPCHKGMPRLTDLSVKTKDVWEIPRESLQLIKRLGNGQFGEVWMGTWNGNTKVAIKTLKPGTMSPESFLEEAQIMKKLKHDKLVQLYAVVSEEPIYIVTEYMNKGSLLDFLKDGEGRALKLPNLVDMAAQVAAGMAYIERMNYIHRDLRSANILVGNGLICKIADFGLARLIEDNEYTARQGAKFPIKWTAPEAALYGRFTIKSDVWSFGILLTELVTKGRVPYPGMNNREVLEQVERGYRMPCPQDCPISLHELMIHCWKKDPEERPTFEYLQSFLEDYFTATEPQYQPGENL
SMILES,inhibition [1],inhibition [2],inhibition [3],IC50 [4],inhibition [5],inhibition [6],inhibition [7],inhibition [8],inhibition [9],inhibition [10],inhibition [11],inhibition [12],inhibition [13],inhibition [14],inhibition [15],inhibition [16],inhibition [17],Activity (SH-SY5Y)
Clc1cccc(CSc2ncnc3[nH]cnc23)c1,inactive,inactive,inactive,0.14 µM,inactive,inactive,inactive,inactive,inactive,inactive,inactive,inactive,inactive,inactive,inactive,inactive,inactive,inactive
c1ccc(CSc2ncnc3[nH]cnc23)cc1,inactive,inactive,inactive,0.2 µM,inactive,inactive,inactive,inactive,inactive,inactive,inactive,inactive,inactive,inactive,inactive,inactive,inactive,inactive
Brc1ccccc1CSc1ncnc2[nH]cnc12,inactive,inactive,inactive,0.27 µM,inactive,inactive,inactive,inactive,inactive,inactive,inactive,inactive,inactive,inactive,inactive,inactive,inactive,inactive
